Values joined by “and” are separate entries in the source; they are usually repeats but may differ in a detail not shown here. Equal values may be shown once.
Experiments:
Format in all cases: in vivo, Brassica napus
[1] = tested on: Brassica plants comprising mutant AHAS alleles; experiment: Greenhouse post-emergence spray test (5 g a.i./ha): survival and plant type rating; parameters: key to number of surviving plants in plant type 4 / number of surviving plants in plant type 5 / number of surviving plants in plant type 2: 5: normal (corresponding to wildtype unsprayed phenotype); 4: normal height, some side branching, normal leaves; 3: intermediate height, intermediate side branching, normal leaves; 2: short, severe side branching (“bushy”), some leave malformations; 1: short, severe side branching (“bushy”), severe leave malformations; conditions: 5 g a.i./ha post-emergence
Description: The correlation between the presence of missense and/or full knockout AHAS alleles in a Brassica plant grown in the greenhouse and tolerance to thiencarbazone-methyl was determined as follows. Of the Brassica plants identified in Example 1 and 2, crosses were made to obtain plants comprising both mutant AHAS1 and AHAS3 alleles (F1), which were subsequently backcrossed and selfed (BC1S1). Single gene AHAS missense mutants were backcrossed twice (BC2). These BC1S1 (representing all possible genotype combinations), as well as BC2 single AHAS gene mutant plants (50%+/+, 50%+/−), were sown in a greenhouse. Treatment post-emergence at the 1-2 leaf stage was carried out with a dose of 5 g a.i./ha of thiencarbazone-methyl and surviving plants were transplanted to 9 cm pots 10 days after spraying. The plants were evaluated for phenotype (height, side branching and leave morphology) 20 days after transplantation on scale of 5 to 1, where; type 5=normal (corresponding to wildtype unsprayed phenotype); type 4=normal height, some side branching, normal leaves; type 3=intermediate height, intermediate side branching, normal leaves; type 2=short, severe side branching (“bushy”), some leave malformations; type 1=short, severe side branching (“bushy”), severe leave malformations (Table 4).

[2] = tested on: Brassica plants comprising mutant AHAS alleles; experiment: Greenhouse post-emergence spraying (10 g a.i./ha): vigor scores; conditions: for vigor score Av, post-emergence (1, 2 and 3 weeks after treatment): 10 g a.i./ha
Description: In another experiment, the effect of combining AHAS full knockouts with AHAS missense herbicide tolerant alleles on tolerance to thiencarbazone-methyl pre-planting application and thiencarbazone-methyl post-emergence spraying was tested in the greenhouse. To this end, the Brassica plants identified in Example 1 and 2 were backcrossed two times with an elite parent line, and subsequently selfed twice to obtain homozygous plants (BC2S2). Treatment pre-planting was carried out on the soil just after sowing with a dose of 20 g a.i./ha of thiencarbazone methyl. For assessment of vigor scores, plants were evaluated on a scale of 1 to 9, where 1=dead, 3=poor, 6=some aberrant phenotype and 9=vigorous. The vigor scores are an average of the scores taken at 2, 3 and 4 weeks after treatment. Treatment post-emergence at the first leaf stage was carried out with a dose of 10 g a.i./ha of thiencarbazone-methyl. The vigor scores are an average of the scores taken 1, 2 and 3 weeks after the treatment. The average values (Av) and standard deviations (SD) of the vigor scores are represented in Table 6.

[3] = tested on: Brassica plants comprising mutant AHAS alleles; experiment: Field trial, post-emergence treatment (0, 10, 20 g a.i./ha), location A: PPTOX and VIG1 scores; conditions: for vigor1 (VIG1) score, Av: 7 days after spray
Description: The correlation between the presence of full knockout and missense AHAS genes in Brassica plants on plant growth and herbicide tolerance of the Brassica plants in the field on location A was also tested upon post-emergence herbicide treatment. The field setup was the same as for the pre-planting field trial. Post-emergence treatment was carried out on the 2-4 leaf stage with a rate of 0 (treatment A), 10 (treatment B), 20 (treatment C) g a.i./ha of thiencarbazone methyl. The phytotoxicity (PPTOX) and vigor1 (VIG1; vigor scores 7 days after herbicide spray) were determined as described above. The average values (Av) and standard deviations (SD) of the scores for the different parameters are represented in Table 9.

[4] = BC1S1 HETO108/HETO102, 204 sown, 201 germinated
[5] = BC1S1 HETO108/HETO103, 204 sown, 199 germinated
[6] = BC1S1 HETO108/HETO104, 204 sown, 200 germinated
[7] = BC1S1 HETO112/HETO111, 204 sown, 204 germinated
[8] = BC2 HETO108, 51 sown, 50 germinated
[9] = BC2 HETO111, 51 sown, 49 germinated
[10] = Elite parent line plants, 10 g a.i./ha (treatment B) post-emergence
[11] = Elite parent line plants, 20 g a.i./ha (treatment C) post-emergence
[12] = plants AHAS1 HETO108 / AHAS3 HETO104, 10 g a.i./ha (treatment B) post-emergence
[13] = plants AHAS1 HETO108 / AHAS3 HETO104, 20 g a.i./ha (treatment C) post-emergence
[14] = plants AHAS1 HETO108 / AHAS3 HETO111, 10 g a.i./ha (treatment B) post-emergence
[15] = plants AHAS1 HETO108 / AHAS3 HETO111, 20 g a.i./ha (treatment C) post-emergence
[16] = plants AHAS1 HETO108 / AHAS3 WT, 10 g a.i./ha (treatment B) post-emergence
[17] = plants AHAS1 HETO108 / AHAS3 WT, 20 g a.i./ha (treatment C) post-emergence
[18] = plants AHAS1 HETO112 / AHAS3 HETO111, 10 g a.i./ha (treatment B) post-emergence
[19] = plants AHAS1 HETO112 / AHAS3 HETO111, 20 g a.i./ha (treatment C) post-emergence
[20] = plants AHAS1 HETO112 / AHAS3 WT, 10 g a.i./ha (treatment B) post-emergence
[21] = plants AHAS1 HETO112 / AHAS3 WT, 20 g a.i./ha (treatment C) post-emergence
[22] = plants AHAS1 WT / AHAS3 HETO104, 10 g a.i./ha (treatment B) post-emergence
[23] = plants AHAS1 WT / AHAS3 HETO104, 20 g a.i./ha (treatment C) post-emergence
[24] = plants AHAS1 WT / AHAS3 HETO111, 10 g a.i./ha (treatment B) post-emergence
[25] = plants AHAS1 WT / AHAS3 HETO111, 20 g a.i./ha (treatment C) post-emergence
[26] = plants AHAS1 WT / AHAS3 WT, 10 g a.i./ha (treatment B) post-emergence
[27] = plants AHAS1 WT / AHAS3 WT, 20 g a.i./ha (treatment C) post-emergence

`COC(=O)c1csc(C)c1S(=O)(=O)NC(=O)n1nc(OC)n(C)c1=O` [thiencarbazone-methyl, methyl 4-[(4,5-dihydro-3-methoxy-4-methyl-5-oxo-1H-1,2,4-triazol-1-yl)carbonylsulfamoyl]-5-methylthiophene-3-carboxylate] was tested, and the “number of surviving plants in plant type 1” value (from here on “number … in plant type 1”) [1, 4] was 108, the “number of surviving plants in plant type 2” value (“number … in plant type 2” for short) [1, 4] was 34 and the “number of surviving plants in plant type 3” value (“number … in plant type 3” for short) [1, 4] was 21. The “number of surviving plants in plant type 4” value (“number … in plant type 4” for short) [1, 4] was 1, the “number of surviving plants in plant type 5” value (“number … in plant type 5” for short) [1, 4] was 0 and the “number of surviving plants transplanted after spraying (trans)” value (“number of surviving plants transplanted” for short) [1, 4] was 169. For the same molecule, the “number … in plant type 1” value [1, 5] was 88, the “number … in plant type 2” value [1, 5] was 18 and the “number … in plant type 3” value [1, 5] was 41. For the same molecule, the “number … in plant type 4” value [1, 5] was 4, the “number … in plant type 5” value [1, 5] was 0 and the “number of surviving plants transplanted” value [1, 5] was 151. The “number … in plant type 1” value [1, 6] was 66, the “number … in plant type 2” value [1, 6] was 18 and the “number … in plant type 3” value [1, 6] was 28. The “number … in plant type 4” value [1, 6] was 2, the “number of surviving plants transplanted” value [1, 6] was 115 and the “number … in plant type 5” value ([1]; BC1S1 HETO108/HETO104, 204 sown, 200 germinated (probably missed during spraying)) was 1. For the same molecule, the “number … in plant type 1” value [1, 7] was 94, the “number … in plant type 2” value [1, 7] was 23 and the “number … in plant type 3” value [1, 7] was 35. For the same molecule, the “number … in plant type 4” value [1, 7] was 0, the “number … in plant type 5” value [1, 7] was 0 and the “number of surviving plants transplanted” value [1, 7] was 152. For the same molecule, the “number … in plant type 1” value [1, 8] was 20, the “number … in plant type 2” value [1, 8] was 2 and the “number … in plant type 3” value [1, 8] was 0. The “number … in plant type 4” value [1, 8] was 0, the “number … in plant type 5” value [1, 8] was 0 and the “number of surviving plants transplanted” value [1, 8] was 22. The “number … in plant type 1” value [1, 9] was 22, the “number … in plant type 2” value [1, 9] was 0 and the “number … in plant type 3” value [1, 9] was 0. The “number … in plant type 4” value [1, 9] was 0, the “number … in plant type 5” value [1, 9] was 0 and the “number of surviving plants transplanted” value [1, 9] was 25. For the same molecule, the “number … in plant type 1” value ([1]; wt, 51 sown, 51 germinated) was 0, the “number … in plant type 2” value ([1]; wt, 51 sown, 51 germinated) was 0 and the “number … in plant type 3” value ([1]; wt, 51 sown, 51 germinated) was 0. The “number … in plant type 4” value ([1]; wt, 51 sown, 51 germinated) was 0, the “number … in plant type 5” value ([1]; wt, 51 sown, 51 germinated) was 0 and the “number of surviving plants transplanted” value ([1]; wt, 51 sown, 51 germinated) was 0. The “vigor score Av, post-emergence (1, 2 and 3 weeks after treatment)” value (from here on “vigor score Av, post-emergence”) ([2]; AHAS1 +/+, AHAS3 +/+ (HETO108+HETO104 series)) was 1.7, the “vigor score Av, post-emergence” value ([2]; AHAS1 +/+, AHAS3 +/+ (HETO108+HETO111 series)) was 1.7 and the “vigor score Av, post-emergence” value ([2]; AHAS1 +/+, AHAS3 +/+ (HETO112+HETO111 series)) was 1.7. The “vigor score Av, post-emergence” value ([2]; AHAS1 +/+, AHAS3 HETO104/HETO104) was 1.8, the “vigor score Av, post-emergence” value ([2]; AHAS1 +/+, AHAS3 HETO111/HETO111 (HETO108+HETO111 series)) was 3.3 and the “vigor score Av, post-emergence” value ([2]; AHAS1 +/+, AHAS3 HETO111/HETO111 (HETO112+HETO111 series)) was 3.1. For the same molecule, the “vigor score Av, post-emergence” value ([2]; AHAS1 HETO108/HETO108, AHAS3 +/+ (HETO108+HETO104 series)) was 3.4, the “vigor score Av, post-emergence” value ([2]; AHAS1 HETO108/HETO108, AHAS3 +/+ (HETO108+HETO111 series)) was 3.3 and the “vigor score Av, post-emergence” value ([2]; AHAS1 HETO108/HETO108, AHAS3 HETO104/HETO104) was 3.8. For the same molecule, the “vigor score Av, post-emergence” value ([2]; AHAS1 HETO108/HETO108, AHAS3 HETO111/HETO111) was 4.7, the “vigor score Av, post-emergence” value ([2]; AHAS1 HETO112/HETO112, AHAS3 +/+) was 1.7 and the “vigor score Av, post-emergence” value ([2]; AHAS1 HETO112/HETO112, AHAS3 HETO111/HETO111) was 3.6. The “vigor score Av, post-emergence” value ([2]; Elite parent line treated) was 1.8, the “thiencarbazone-methyl tolerance of plants homozygous for a missense allele and a full knock-out allele, versus missense allele with other AHAS gene homozygous wild-type” value ([2]; post-emergence spraying, greenhouse) was “higher” and the “phytotoxicity (PPTOX) score, Av” value [3, 10] was 1.00. The “vigor1 (VIG1) score, Av” value [3, 10] was 2.33, the “phytotoxicity (PPTOX) score, Av” value [3, 11] was 1.00 and the “vigor1 (VIG1) score, Av” value [3, 11] was 2.33. The “phytotoxicity (PPTOX) score, Av” value [3, 12] was 5.00, the “vigor1 (VIG1) score, Av” value [3, 12] was 5.00 and the “phytotoxicity (PPTOX) score, Av” value [3, 13] was 4.00. For the same molecule, the “vigor1 (VIG1) score, Av” value [3, 13] was 4.00, the “phytotoxicity (PPTOX) score, Av” value [3, 14] was 6.67 and the “vigor1 (VIG1) score, Av” value [3, 14] was 6.67. The “phytotoxicity (PPTOX) score, Av” value [3, 15] was 6.00, the “vigor1 (VIG1) score, Av” value [3, 15] was 6.00 and the “phytotoxicity (PPTOX) score, Av” value [3, 16] was 6.00 and 5.67. For the same molecule, the “vigor1 (VIG1) score, Av” value [3, 16] was 6.00 and 5.67, the “phytotoxicity (PPTOX) score, Av” value [3, 17] was 4.33 and the “vigor1 (VIG1) score, Av” value [3, 17] was 4.67 and 4.33. The “phytotoxicity (PPTOX) score, Av” value [3, 18] was 5.00, the “vigor1 (VIG1) score, Av” value [3, 18] was 5.00 and the “phytotoxicity (PPTOX) score, Av” value [3, 19] was 4.67. The “vigor1 (VIG1) score, Av” value [3, 19] was 4.67, the “phytotoxicity (PPTOX) score, Av” value [3, 20] was 1.00 and the “vigor1 (VIG1) score, Av” value [3, 20] was 2.00. The “phytotoxicity (PPTOX) score, Av” value [3, 21] was 1.00, the “vigor1 (VIG1) score, Av” value [3, 21] was 1.67 and the “phytotoxicity (PPTOX) score, Av” value [3, 22] was 1.00. For the same molecule, the “vigor1 (VIG1) score, Av” value [3, 22] was 1.67, the “phytotoxicity (PPTOX) score, Av” value [3, 23] was 1.00 and the “vigor1 (VIG1) score, Av” value [3, 23] was 1.67. The “phytotoxicity (PPTOX) score, Av” value [3, 24] was 5.33 and 5.67, the “vigor1 (VIG1) score, Av” value [3, 24] was 5.33 and the “phytotoxicity (PPTOX) score, Av” value [3, 25] was 4.67. For the same molecule, the “vigor1 (VIG1) score, Av” value [3, 25] was 4.67, the “phytotoxicity (PPTOX) score, Av” value [3, 26] was 1.00 and the “vigor1 (VIG1) score, Av” value [3, 26] was 1.67. For the same molecule, the “phytotoxicity (PPTOX) score, Av” value [3, 27] was 1.00 and the “vigor1 (VIG1) score, Av” value [3, 27] was 2.00.

Reference: patent publication US20120255051A1, “HERBICIDE TOLERANT PLANTS” (priority 2009, published 2012)
